Measured values from article PMC8112869, “Therapeutic inhibition of keratinocyte TRPV3 sensory channel by local anesthetic dyclonine” (eLife, 2021).

Columns and labels:
[1] = tested on: TRPV3+/+ and TRPV3-/- mice; assay: Hot plate (55°C) paw withdrawal latency, Hargreaves test; format: in vivo, mouse
Protocol: All tests were conducted during the light phase of the light/dark cycle by a trained observer blind to the genotype. Mice were habituated to the testing room for 60 min prior to the behavioral tests unless otherwise stated. Hargreaves test was performed as described previously ([Wang et al., 2018]). All behavioral experiments were conducted in a double-blind manner. For measurement of thermal hyperalgesia, animals were placed individually, 30 min after injection, on a hot plate (Bioseb, Chaville, France) with the temperature adjusted to 55°C. The withdrawal latency of each hind paw was determined until nocifensive reaction appeared (licking foot). Right hind paws of mice were injected intraplantarly with 10 μl normal saline (0.9% NaCl). Left hind paws of mice were injected intraplantarly with 10 μl normal saline (supplemented with 10 or 50 μM dyclonine).

[2] = molecular target: T1, TRPV3 L655A (Mus musculus, UniProt Q8K424, L655A); assay: Whole-cell recording of TRPV3 mutant L655A in HEK 293T cells; format: cell-based; conditions: 2-APB (1 mM)-evoked, –60 mV, read-out: IC50 for inhibition of TRPV3 mutant
T1 construct: expressed in transfected cells; host or cells: HEK 293T
T1 sequence (Q8K424 whole entry L655A): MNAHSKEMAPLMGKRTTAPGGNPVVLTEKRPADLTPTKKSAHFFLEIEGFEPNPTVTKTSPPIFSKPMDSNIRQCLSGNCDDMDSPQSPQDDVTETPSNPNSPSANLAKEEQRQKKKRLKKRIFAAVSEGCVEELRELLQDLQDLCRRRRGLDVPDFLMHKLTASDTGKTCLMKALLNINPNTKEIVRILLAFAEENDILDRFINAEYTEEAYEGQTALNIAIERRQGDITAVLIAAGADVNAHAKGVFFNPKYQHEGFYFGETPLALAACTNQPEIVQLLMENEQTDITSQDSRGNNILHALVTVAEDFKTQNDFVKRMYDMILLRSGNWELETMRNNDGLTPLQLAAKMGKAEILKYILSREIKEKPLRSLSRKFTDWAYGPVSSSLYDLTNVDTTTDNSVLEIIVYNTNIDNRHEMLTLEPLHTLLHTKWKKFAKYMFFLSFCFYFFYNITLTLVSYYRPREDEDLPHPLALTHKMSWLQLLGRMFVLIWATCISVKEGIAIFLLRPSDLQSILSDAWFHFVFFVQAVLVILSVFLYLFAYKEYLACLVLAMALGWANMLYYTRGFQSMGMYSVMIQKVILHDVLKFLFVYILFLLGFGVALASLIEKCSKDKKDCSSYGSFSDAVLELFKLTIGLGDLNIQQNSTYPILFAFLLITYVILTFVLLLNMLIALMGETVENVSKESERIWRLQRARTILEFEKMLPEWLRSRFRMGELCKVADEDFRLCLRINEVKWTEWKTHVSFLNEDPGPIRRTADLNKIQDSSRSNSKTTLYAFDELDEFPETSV
Excerpt: (§1) The WT mouse TRPV3 (mTRPV3), human TRPV3 (hTRPV3), rat TRPV1, rat TRPV2, rat TRPM8, and mouse TRPA1 cDNAs were generously provided by Dr. Feng Qin (State University of New York at Buffalo, Buffalo, USA). The GFP-mTRPV3 WT and the mutants (mTRPV3-G573S and mTRPV3-G573C) in pcDNA4/TO vector were gifts from Dr. Michael X Zhu (The University of Texas Health Science Center at Houston, Houston, USA). The WT fTRPV3 was kindly provided by Dr. Makoto Tominaga (Department of Physiological Sciences, SOKENDAI, Okazaki, Japan). All mutations were made using the overlap-extension polymerase chain reaction method as previously described ([Tian et al., 2019]). The resulting mutations were then verified by DNA sequencing. […]
(§2) Conventional whole-cell and excised patch-clamp recording methods were used. […] For a subset of recordings, currents were amplified using an Axopatch 200B amplifier (Molecular Devices, Sunnyvale, CA) and recorded through a BNC-2090/MIO acquisition system (National Instruments, Austin, TX) using QStudio developed by Dr. Feng Qin at State University of New York at Buffalo. […] As determined by the conductance tests, the solution around a patch under study was fully controlled by the application of a flow rate of 100 μl/min or greater. […]

[3] = molecular target: T2, TRPA1 (Mus musculus, UniProt Q8BLA8); assay: Whole-cell recording of AITC-activated TRPA1 in HEK 293T cells; format: cell-based
T2 construct: expressed in transfected cells; host or cells: HEK 293T
T2 sequence (Q8BLA8 whole entry): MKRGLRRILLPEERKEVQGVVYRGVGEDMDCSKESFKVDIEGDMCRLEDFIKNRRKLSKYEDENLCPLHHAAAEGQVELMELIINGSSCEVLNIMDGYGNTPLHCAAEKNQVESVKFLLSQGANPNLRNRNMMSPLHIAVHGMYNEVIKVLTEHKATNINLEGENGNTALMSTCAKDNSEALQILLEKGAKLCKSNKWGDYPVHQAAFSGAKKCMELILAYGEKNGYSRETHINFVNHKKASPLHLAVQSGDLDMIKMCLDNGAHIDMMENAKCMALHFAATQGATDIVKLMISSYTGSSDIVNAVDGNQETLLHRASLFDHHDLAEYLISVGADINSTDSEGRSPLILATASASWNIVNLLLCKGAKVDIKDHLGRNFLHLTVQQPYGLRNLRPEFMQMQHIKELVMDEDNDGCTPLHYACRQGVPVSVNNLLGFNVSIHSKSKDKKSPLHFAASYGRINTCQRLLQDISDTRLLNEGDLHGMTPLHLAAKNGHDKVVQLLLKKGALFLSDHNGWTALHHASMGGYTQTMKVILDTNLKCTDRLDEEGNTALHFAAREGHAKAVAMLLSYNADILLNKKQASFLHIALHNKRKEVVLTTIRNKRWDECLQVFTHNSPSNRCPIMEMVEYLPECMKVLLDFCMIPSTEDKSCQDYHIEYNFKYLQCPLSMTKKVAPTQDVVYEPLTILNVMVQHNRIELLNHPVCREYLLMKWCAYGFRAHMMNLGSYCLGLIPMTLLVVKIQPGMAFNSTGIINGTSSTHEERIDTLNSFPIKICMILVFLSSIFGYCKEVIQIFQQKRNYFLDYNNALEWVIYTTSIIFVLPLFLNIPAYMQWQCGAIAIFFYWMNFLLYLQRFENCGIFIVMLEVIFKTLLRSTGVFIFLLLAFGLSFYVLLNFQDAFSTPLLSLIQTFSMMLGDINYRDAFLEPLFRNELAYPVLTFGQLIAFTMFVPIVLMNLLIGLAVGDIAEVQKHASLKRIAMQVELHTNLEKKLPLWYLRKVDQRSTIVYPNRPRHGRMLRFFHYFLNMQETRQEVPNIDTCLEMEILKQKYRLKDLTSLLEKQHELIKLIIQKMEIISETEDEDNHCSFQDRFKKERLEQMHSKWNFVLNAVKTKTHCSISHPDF
Excerpt: as §1, §2

[4] = molecular target: T3, TRPM8 (Rattus norvegicus, UniProt Q8R455); assay: Whole-cell recording of menthol-activated TRPM8 in HEK 293T cells; format: cell-based
T3 construct: expressed in transfected cells; host or cells: HEK 293T
T3 sequence (Q8R455 whole entry): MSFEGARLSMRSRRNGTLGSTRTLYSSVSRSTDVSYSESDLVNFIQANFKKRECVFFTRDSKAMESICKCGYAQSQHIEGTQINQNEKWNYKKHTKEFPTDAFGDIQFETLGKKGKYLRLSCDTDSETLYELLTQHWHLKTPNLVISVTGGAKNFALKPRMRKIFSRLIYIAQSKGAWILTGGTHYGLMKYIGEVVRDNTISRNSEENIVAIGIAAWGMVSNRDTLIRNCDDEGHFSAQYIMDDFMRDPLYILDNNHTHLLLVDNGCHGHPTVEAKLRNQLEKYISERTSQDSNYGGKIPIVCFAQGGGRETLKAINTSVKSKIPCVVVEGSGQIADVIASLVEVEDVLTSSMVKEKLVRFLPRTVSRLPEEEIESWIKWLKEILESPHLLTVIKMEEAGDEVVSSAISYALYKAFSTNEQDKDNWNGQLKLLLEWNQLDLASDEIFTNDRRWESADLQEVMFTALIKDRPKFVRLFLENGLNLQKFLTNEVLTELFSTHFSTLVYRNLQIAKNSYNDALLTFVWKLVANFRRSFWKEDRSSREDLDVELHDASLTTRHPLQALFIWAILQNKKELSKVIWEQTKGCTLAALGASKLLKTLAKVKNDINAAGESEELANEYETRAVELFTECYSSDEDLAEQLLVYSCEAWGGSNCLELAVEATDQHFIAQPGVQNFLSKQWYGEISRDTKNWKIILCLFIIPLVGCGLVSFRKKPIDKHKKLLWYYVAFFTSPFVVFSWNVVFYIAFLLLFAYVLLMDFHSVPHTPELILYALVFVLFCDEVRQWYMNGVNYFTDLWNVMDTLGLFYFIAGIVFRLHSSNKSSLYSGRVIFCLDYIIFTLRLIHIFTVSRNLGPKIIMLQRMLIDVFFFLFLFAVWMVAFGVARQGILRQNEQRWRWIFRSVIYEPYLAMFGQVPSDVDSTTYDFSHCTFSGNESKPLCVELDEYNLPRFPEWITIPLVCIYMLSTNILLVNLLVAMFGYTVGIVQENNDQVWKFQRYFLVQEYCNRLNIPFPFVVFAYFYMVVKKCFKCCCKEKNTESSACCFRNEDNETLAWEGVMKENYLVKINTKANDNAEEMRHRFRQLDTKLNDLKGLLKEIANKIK
Excerpt: as §1, §2

IC50 [2]: 287 ± 10.4 µM
Hill coefficient nH [3]: 1.3 ± 0.15
reduction in current amplitude ([3]; 10 μM dyclonine, AITC-activated): 5% ± 1%
Hill coefficient nH [4]: 1.2 ± 0.20
reduction in current amplitude ([4]; 10 μM dyclonine, menthol-activated): 9% ± 2%
SMILES: CCCCOc1ccc(C(=O)CCN2CCCCC2)cc1 [dyclonine]
paw withdrawal latencies (PWL) ([1]; TRPV3+/+ mice, intraplantar 10 μM dyclonine): 18.08 ± 0.03 s
paw withdrawal latencies (PWL) ([1]; TRPV3+/+ mice, intraplantar 50 μM dyclonine): 18.82 ± 0.42 s
paw withdrawal latencies (PWL) ([1]; TRPV3-/- mice, intraplantar 10 μM dyclonine): 18.23 ± 0.52 s
paw withdrawal latencies (PWL) ([1]; TRPV3-/- mice, intraplantar 50 μM dyclonine): 18.61 ± 0.46 s
